Results published in a melting point compilation (Tetko et al.; mined from patent text by program, amines drawn as free bases though some values may be those of a salt).

| melting point [°C] | Compound |
| --- | --- |
| 207 to 209 | CCCCCCNC1=NS(=O)(=O)c2sc(Cl)cc2N1 |
| 66.5 to 67 | CCCCCCCCCCCCOc1ccc(CO)cc1 |
| 163 to 164 | Cc1cc(Cl)ccc1NC(=O)c1cccc(S(=O)(=O)N(C)c2ccc(Br)cc2)c1 |
| 63 to 64 | O=Cc1ccc(N2CCC3(CC2)OCCO3)c(Br)c1 |
| 157 to 158 | CCOC(=O)C(=CNc1c(C#N)cnn1-c1ccc(Cl)c(Cl)c1Cl)C(=O)OCC |
| 180 to 182 | O=S1(=O)CCON=C1c1c(Cl)cccc1Cl |
| 60 to 69 | CC(=O)OCC1CC(=O)NN=C1c1ccc(N2CCOCC2)c(C#N)c1 (stereo not given) |
| 157 to 158 | CN1CCN(CCc2ccc(Nc3ncc4c(n3)-c3ccccc3C(c3ccccc3C(F)(F)F)C4)cc2)CC1 (stereo not given) |
| 32 to 33 | CCCCCCCCCCCCCCP(=O)(OC)OC |
| 60 to 61 | Cc1cc(C(F)(F)F)c2cccc(O)c2n1 |
| 109 to 116 | COC(=O)c1ccc(/C=C/c2cc3c(cc2CCCO)C(C)(C)CCC3(C)C)cc1 |
| 96 to 97 | C=C(COC)c1ccc(NC(=O)N(C)C)cc1 |
| 82 to 84 | CCC(c1ccccn1)N(Cc1ccc(C(=O)OC)cc1)S(=O)(=O)c1ccc(F)cc1 (stereo not given) |
| 123 to 130 | Oc1cc(C(F)(F)F)nc(C(F)(F)F)c1 |
| 126 to 128 | CCOC(=O)c1cccc(NC(=O)N2CCn3c(c(C(N)=O)c(Cl)c3-c3ccccc3)C2)c1 |
| 184 to 185 | CCOC(=O)c1c(CCc2c[nH]nn2)nc2sc3c(c2c1-c1ccc(OC)c(OC)c1)CCN(C(=O)c1ccccc1)C3 |
| 140 to 143 | CCCCCCCCCCCC(=O)NC(=O)N1CC1C#N (stereo not given) |
| 72 | Cc1cc(OC(F)(F)F)ccc1O |
| 186 to 189 | O=CN(O)C(CS(=O)(=O)c1ccc(-c2ccc(C(F)(F)F)cc2)cc1)c1cccnc1 (stereo not given) |
| 95 to 97 | CCOC(=O)COc1ccc(C(=O)[C@@H](NC(=O)c2ccc(C(=N)NC(=O)OC(C)(C)C)cc2)[C@@H](C)OC(C)(C)C)cc1 |
| 111 to 113 | CCNC(=O)c1c(Cl)cccc1[Si](C)(C)C1CCCCC1 |
| 170 to 172 | Cc1nc2cccc(OCC(C)(C)C(=O)NCC3CCC3)c2c(N)c1C(=O)O |
| 124 to 126 | O=C(N[C@@H](Cc1ccccc1)C(=O)Oc1ccc([N+](=O)[O-])cc1)OCc1ccccc1 |
| 160 to 162 | CCN(Cc1cc(Br)ccc1NCc1ccccc1)c1ccc(C(N)=O)nn1 |

| melting point [°C] | Compound |
| --- | --- |
| 279 to 289 | CN(C)CCNc1nc(C2C(=O)Nc3ccc(Br)cc32)c2cn(C)nc2n1 (stereo not given) |
| 146 | O=[N+]([O-])c1c(Cl)cccc1-c1nn(CO)cc1Cl |
| 69 to 71 | O=C1c2ccccc2C(=O)N1OCC/C=C/c1cccs1 |
| 110 to 111 | Cc1cc(OCc2nc3ccccc3s2)ccc1N |
| 154 | CCN(C1CCN(C)CC1)S(=O)(=O)c1ccc(Nc2nccc(Nc3ccc(F)cc3)n2)cc1 |
| 154 to 156 | COc1ccccc1OC1CCN(CCCNC(=O)c2cccc3c(=O)c(C)c(-c4ccccc4)oc23)CC1 |
| 84 to 86 | CCOC(=O)C(OCC)C(=O)Nc1cc(Cl)cc(Cl)c1 (stereo not given) |
| 166 to 168 | CCCCC(Cc1ccc(OCCNC(=O)c2ccc(-c3ccc(OC)cc3)cc2)cc1)C(=O)O (stereo not given) |
| 186 to 188 | CCOc1nc2c(cc1C)C(=O)c1ccccc1C2=O |
| 146 to 148 | O=C(O)c1cc(F)ccc1Sc1ccccc1 |
| 167 to 169 | O=C(C1CC1)N1CCC2C1CCCC2(O)c1ccc(Cl)cc1 (stereo not given) |
| 118 | C=CCOc1ccc(C=CC(=O)Oc2ccc(OC(=O)C(=C)C)cc2)cc1 |
| 205 to 206 | O=C1N=c2ccc(NCCCc3ccccc3)cc2=N1 |
| 80 to 82 | CCOc1c(NC(C)(C)C)c(=O)c1=O |
| 191 to 193 | CS(=O)c1ccc(C2=NN(S(=O)(=O)c3ccc(I)cc3)CCC2)cc1 (stereo not given) |
| 282 to 284 | O=C1C=CN=CC1[N+](=O)[O-] (stereo not given) |
| 155 to 158 | Nc1cccc(S(=O)(=O)Nc2nncs2)c1 |
| 164 to 165 | CN(C)CC1CCc2[nH]c3c(c2C1=O)CCC3 (stereo not given) |
| 199 | OC(c1ccc(Cl)cc1)(c1cccnc1)c1ccc2noc(-c3cccc(Cl)c3)c2c1 (stereo not given) |
| > 225 | CSc1sc2[nH]c(=O)c(=O)[nH]c2c1C#N |
| 104 to 105 | c1ccc(C2(c3ccccc3)SCCS2)cc1 |
| 163 to 164 | COC(=O)C=Cc1cnc(N2CCC[C@H]2CO)nc1NCc1ccc(OC)c(Cl)c1 |
| 204 | COc1cc(N(CC(N)=O)S(=O)(=O)c2ccc(OC)c(OC)c2)c(C(O)c2c(F)cccc2F)cc1C (stereo not given) |
| 86 | O[C@@H]1CCCC[C@H]1N=Cc1ccccc1 (relative stereo) |

| melting point [°C] | Compound |
| --- | --- |
| 202 to 203 | NC1CC2=CNC=C3C=COCC1=C32 (stereo not given) |
| 252 to 254 | Cc1c(-c2ccc(O)c(F)c2)sc(C=O)c1-c1ccc(O)c(Cl)c1 |
| 149 to 150 | CC(C)(C)c1cc(C(C)(C)C)c(O)c(C(=O)Nc2ccc(S(=O)(=O)C(F)(F)F)cc2Cl)c1O |
| 112 to 114 | N#CCCN(C=O)CC(=O)O |
| 252 to 254 | COc1cc2c(cc1OC)-c1cc(OC)c(OC)cc1C1CN3C(=O)CCC3C=C21 (stereo not given) |
| 142 | CCCCCN1C(=O)C(CCc2nnn[nH]2)(NC(=O)c2ccc(Cl)c(Cl)c2)c2ccccc21 (stereo not given) |
| 178 | O=c1[nH]nccc1-c1ccccc1OC(F)(F)C(F)F |
| 97 to 98 | Nc1ccc2oc3c(c2c1)CCCCCC3 |
| 170 to 172 | O=C1CCCN1CC1(O)CCN(c2ccnc(C(F)(F)F)n2)CC1 |
| 164 to 165 | Cc1cc(OCc2ccc(-c3ccc(C(F)(F)F)cc3)nc2C)ccc1OC(C)(C)C(=O)O |
| 121 to 122 | COc1ccc(CCC2OC(=O)NC2=O)cc1O (stereo not given) |
| 192 to 194 | CCN(CC)C(=O)c1cc(-c2ccccc2)c(=O)n2c1-c1cc(Cl)ccc1CN2 |
| 145 | O=C1c2ccccc2C(=O)c2c(NC3CCCCC3)cccc21 |
| 103 to 104 | CCOC(=O)C=Cc1ccc(OC(C)C)c(OC)c1 |
| 308 to 310 | O=C1CNCC2=C1N=C1N=C(N3CCOCC3)NN1C2 |
| 167 to 169 | CCOC(=O)C1=C(COCCn2c(C)nnc2-c2ccccc2)NC(C)=C(C(=O)Nc2ccccn2)C1c1ccccc1Cl (stereo not given) |
| 163 to 165 | O=C(c1ccccc1)c1ccc2n1CCCCC2C(=O)O (stereo not given) |
| 132 to 134 | CCc1cccc(C)c1CNc1cc(Br)cc2c1ncn2C |
| 142 to 144 | Fc1ccc(C(=C(c2ccccc2)C(F)(F)F)c2ccc(OCCBr)cc2)cc1 |
| 122 to 123 | NC(=O)c1cccc(OCc2cccc(O)c2)c1 |
| 120 | O=C1NC(=O)C2(CCCN3CCN(c4ccc(Cl)cc4)CC3)C=CC=CC12 (stereo not given) |
| 112 | N#Cc1ccc(COc2cccc(OCc3ccc4ccccc4n3)c2)cc1 |
| 179 to 180 | O=C(c1cc(C(F)(F)F)cc(C(F)(F)F)c1)N1CCOc2nccc(-c3ccccc3)c2C1 |
| 149 to 152 | CCOC(=O)C1=C(C)NC(c2ncsc2Cl)=NC1c1ccc(F)cc1Cl (stereo not given) |

| melting point [°C] | Compound |
| --- | --- |
| 236 | CN1CCN(c2ccc(C(=O)N[C@H]3CC[C@H](CCN4CCN(c5nccc6c5CCO6)CC4)CC3)cc2)CC1 |
| 121 to 122 | CC(=O)N1CCSC1Cc1cnn(-c2ccccc2)c1-c1ccc(Cl)cc1 (stereo not given) |
| 219 to 221 | CCC(=O)NCc1cccc2c1C(=O)N(C1CCC(=O)NC1=O)C2=O (stereo not given) |
| 105 to 108 | CCN(CC)c1ccc(C(=O)Cn2ncc(-c3ccc(S(C)(=O)=O)cc3)c(-c3ccc(F)cc3)c2=O)cc1 |
| 143 to 146 | O=C(O)CP(=O)(c1ccccc1)c1ccccc1 |
| 152 | O=C1CNN(Cc2cccc(C(F)(F)F)c2)C(=O)N1 |
| 203 | CC(C)NC(=S)N1CCc2[nH]cnc2C1C(C)C (stereo not given) |
| 94 to 96 | COc1ccc(CNc2c(Cl)cnn(C)c2=O)cc1 |
| 158 to 160 | Cc1oc2c(-c3ccc(F)cc3)c(-c3ccc(S(C)(=O)=O)cc3)nn2c1C |
| 260 | CN1C(=O)C(=O)NCC1(CCO)c1ccc(Cl)c(Cl)c1 (stereo not given) |
| 166 to 168 | COc1cc(C(=O)NS(=O)(=O)c2ccccc2C)ccc1Cc1cccc2ccc(CCCC(=O)N(C)C)cc12 |
| 216 | Brc1ccc(C2CCCc3cncn32)cc1 (stereo not given) |
| 99 to 101 | COC(=O)c1nc(-c2cc(N)c(Cl)cc2F)cc(N)c1Cl |
| 270 to 274 | COc1ccc(-c2ccc(C(=O)O)cc2)cc1-c1cccc([N+](=O)[O-])c1 |
| 115 to 116 | Cc1cc(O)c(S(=O)Cc2ccccc2F)c(=O)o1 (stereo not given) |
| 175 to 177 | CN1CCCC1=NCCSc1cc2ccccc2[nH]1 |
| 160 | CC(C)(C)OC(=O)C1CCN(C(=O)C2CN(c3ccc(C(=N)N)cc3)C(=O)O2)CC1 (stereo not given) |
| 95 to 96 | CC(C)(CCCCCCCCCCCC(C)(C)C(=O)O)C(=O)O |
| 129 to 131 | CCc1c(-c2ccc(O)cc2)c2c(COCCCCCCN3CCCCC3)cc3c(O)ccc1n32 |
| 233 | Cn1ccc(NC(=O)Nc2cccc3c2C2CCCCN2C3=O)n1 (stereo not given) |
| 109 to 110 | COCc1cc2c(s1)CCCc1cc(=O)n(-c3ccc(C)cc3)nc1-2 |
| 105 to 107 | C=Cc1cc(CNC(=O)NCc2ccc(C(C)(C)C)cc2)cc(C)c1NS(C)(=O)=O |
| 142 to 144 | CCN1C(=O)C(CCN2CCN(c3ccccc3OC)CC2)Sc2ccccc21 (stereo not given) |
| 146 to 150 | COC(=O)CCc1cc2cc(Cl)ccc2n1S(=O)(=O)c1cc(C)cc(C)c1 |

| Compound | melting point [°C] |
| --- | --- |
| O=C1CN2CCC1(Cc1ccccc1)CC2 | 111 |
| O=[N+]([O-])c1ccc(OCC(COc2ccc([N+](=O)[O-])cc2)(COc2ccc([N+](=O)[O-])cc2)COc2ccc([N+](=O)[O-])cc2)cc1 | 274 to 282 |
| CCCn1cc(C(=O)c2cccc3ccccc23)cc1C(=O)O | 145 |
| O=[N+]([O-])c1c(NCC23CCCN2CCC3)cnc2ccccc12 | 95 to 99 |
